Values after ≈ are worked out from the molar mass of the structure shown. Where two headings read alike, the source gives them in different places. Marks after values point to notes of the source that are not given here.
Columns and labels:
[1] = system: lung cancer A549 transplanted mouse model; experiment: In vivo tumor growth inhibition, per os administration; design: species or system Kunming mice; settings: for Body Weight After-Dose / Inhibitory Rate / Weight of Tumor: 50 mg/kg daily, one week; for Body Weight Pre-Dose: 50 mg/kg
Excerpt: Subsequently, 8g was set to determine further its in vivo efficacy with per os administration on the growth of inoculated A549 in mice using DDO-6101 as a comparison control. […] Thus, compound 8g was identified as a new and orally-active natural-product-like caged xanthone and also a promising antitumor agent for further clinical development.
(§1) Kunming mice with body weights of 18–22 g were transplanted with lung cancer A549 cells according to protocols of transplant tumor research, as previously reported. Twenty-four hours after tumor transplantation, animals were weighed and randomly divided into five groups. All test drugs were given […] 24 h after tumor transplantation. The treated groups were intravenously injected or administered per os different doses of test compounds, respectively. The negative control group received 0.9% normal saline. Treatments were conducted at a frequency of one dose per two days for the intravenous group or one dose per day for the per os group for two or one week, respectively. All animals were sacrificed 24 h after the final treatment. All data are presented as mean ± SD and the statistical significance was evaluated by t-test.

[2] = system: taxol-resistant A549 cell line (A549/taxol); experiment: MTT antiproliferative assay, A549/taxol; type: cell-based; settings: Homo sapiens
Procedure: (§2) The antiproliferative activity of the ten synthesized caged xanthone derivatives, as well as the lead compound DDO-6101 and GA were assessed with the 3-(4,5-dimethylthiazol-2-yl)-2,5-diphenyltetrazolium bromide (MTT) assay, as previously reported, against six human cancer cell lines, including the human lung carcinoma A549 cell line, taxol-resistant A549 cell line (A549/taxol), cisplatin-resistant A549 cell line (A549/cisplatin), the human hepatocellular carcinoma HepG2 cell line, the human colon carcinoma HCT-116 cell line, and the human glioblastoma U251 cell line. DDO-6101 and GA were used as positive controls for the in vitro assay.
(§3) Cancer cell lines were obtained from Cell Bank of Shanghai, Chinese Academy of Sciences. Cells were cultured in 90% RPMI 1640 medium (GIBCO, Invitrogen Corporation, New York, NY, USA) supplemented with 10% fetal bovine serum (Sijiqing Biotechnology Co., Hangzhou, China), 100 U/mL benzyl penicillin, and 100 μg/mL streptomycin in a humidified environment with 5% CO2 at 37 °C. All the tested compounds were dissolved in DMSO at a concentration of 0.01 mol/L and stored at −4 °C.
(§4) The inhibition of tumour cell growth was measured by a modified tetrazolium (MTT) salt assay. Cells were cultured in a 96-well plate and treated with culture medium alone or different concentrations of the compounds. The cells were incubated for 72 h, and then the MTT assay reagent was added. After a 4 h incubation, the formazan product was quantitated at 570 nm. The IC50 values (the concentrations that gave rise to 50% inhibition of cell viability) were calculated using GraphPad Prism 6 using a variable slope (four parameters).

[3] = system: human hepatocellular carcinoma HepG2 cell line; experiment: MTT antiproliferative assay, HepG2; type: cell-based; settings: 72 h
Procedure: as §2, §3, §4

[4] = Parallel artificial membrane permeability assay (PAMPA)
Excerpt: (§5) In parallel with the in vitro antitumor activity testing, the physicochemical properties of the target caged xanthone derivatives were theoretically predicted and experimentally determined in an effort to identify potential druglike compounds prior to the time-consuming and costly development and optimization of derivatives that may ultimately fail in efficacy experiments in vivo. The partition coefficient (logD) was experimentally determined on a Gemini Profiler instrument (pION, Inc., Woburn, MA, USA) by a potentiometric titration method. The polar surface area (PSA), as well as intestinal absorption level, were theoretically predicted by Accelrys Discovery Studio 4.0 (BIOVIA, San Diego, CA, USA) using the ADMET protocol. […] The permeability coefficient (Pe) was determined using a standard parallel artificial membrane permeability assay (PAMPA) on a PAMPA Explorer instrument (pION).
A HPLC system with an ultraviolet (UV) detector was used to detect the solubility of the compounds. The optimal wavelength was 290 nm. Ethanol/water (85:15) was an efficient eluent at a flow rate of 0.5 mL/min. The compounds were stirred in deionized water overnight to maximize the retention of the compounds in solution. Then, the solutions were filtered and the supernatant was used as a fluid sample for HPLC detection. The permeability (Pe) of the compounds was tested with the help of a standard PAMPA (pION). PAMPA was performed on a PAMPA Explorer instrument (pION) with the PAMPA Explorer command software (Version 3.7.4.1). The compounds were diluted to 10 mM with the system solution buffer (pH 7.4). Then, 150 μL of the diluted compound solution was transferred to a UV plate, and the UV spectrum was collected and used as a reference. Then, paint the membrane with 5 μL of gastrointestinal tract (GIT) lipid. The acceptor chamber was filled with 200 μL of acceptor solution buffer, and the donor chamber was filled with 200 μL of diluted compound solution. […] The UV spectra (240–500 nm) from the donor and the acceptor were collected. The permeability coefficient was calculated with the PAMPA Explorer Command software (Version 3.7.4.1) based on the area under the curve (AUC) of the reference plate, the donor plate, and the acceptor plate. The permeability coefficient of the compound was tested for four times, and the data are shown as the average values.

[5] = system: cisplatin-resistant A549 cell line (A549/cisplatin); experiment: MTT antiproliferative assay, A549/cisplatin; type: cell-based; settings: Homo sapiens, 72 h
Procedure: as §2, §3, §4

[6] = system: lung cancer A549 transplanted mouse model; experiment: In vivo tumor growth inhibition, intravenous administration; design: species or system Kunming mice; settings: for Body Weight After-Dose / Inhibitory Rate / Weight of Tumor: two weeks
Procedure: The lung cancer A549 transplanted mouse model was employed. DDO-6101 and antitumor drug 5-fluorouracil (5-FU) were also tested for comparison.
as §1

[7] = system: human colon carcinoma HCT-116 cell line; experiment: MTT antiproliferative assay, HCT116; type: cell-based; settings: 72 h
Procedure: as §2, §3, §4

[8] = Aqueous solubility by HPLC; settings: deionized water, thermodynamic from solid
Excerpt: as §5
A HPLC system with an ultraviolet (UV) detector was used to detect the solubility of the compounds. The optimal wavelength was 290 nm. Ethanol/water (85:15) was an efficient eluent at a flow rate of 0.5 mL/min. The compounds were stirred in deionized water overnight to maximize the retention of the compounds in solution. Then, the solutions were filtered and the supernatant was used as a fluid sample for HPLC detection. The permeability (Pe) of the compounds was tested with the help of a standard PAMPA (pION). PAMPA was performed on a PAMPA Explorer instrument (pION) with the PAMPA Explorer command software (Version 3.7.4.1). The compounds were diluted to 10 mM with the system solution buffer (pH 7.4). Then, 150 μL of the diluted compound solution was transferred to a UV plate, and the UV spectrum was collected and used as a reference. Then, paint the membrane with 5 μL of gastrointestinal tract (GIT) lipid. The acceptor chamber was filled with 200 μL of acceptor solution buffer, and the donor chamber was filled with 200 μL of diluted compound solution. The PAMPA sandwich was assembled and left at 25 °C for 4 h. The UV spectra (240–500 nm) from the donor and the acceptor were collected. The permeability coefficient was calculated with the PAMPA Explorer Command software (Version 3.7.4.1) based on the area under the curve (AUC) of the reference plate, the donor plate, and the acceptor plate. The permeability coefficient of the compound was tested for four times, and the data are shown as the average values.

[9] = system: U2OS cells; experiment: MTT antiproliferative assay, U2OS; type: cell-based; settings: Homo sapiens, 72 h
[10] = system: human lung carcinoma A549 cell line; experiment: MTT antiproliferative assay, A549; type: cell-based; settings: for IC50: Homo sapiens, A549, MTT, 72 h
Procedure: as §2, §3, §4

[11] = logD by potentiometric titration (Gemini Profiler); type: physicochemical; settings: pH 7.4; measured on Gemini Profiler instrument (pION); read-out: Log D 7.4
[12] = A549/Taxol, MTT, 72 h, read-out: IC50 A549/Taxol

IC50 [2, 12] [nM]	IC50 [3] [nM]	Papp at 4 h, 10 mM ([4]; pH 5) [×10⁻⁶ cm/s]	Papp at 4 h, 10 mM ([4]; pH 6.2) [×10⁻⁶ cm/s]	Papp at 4 h, 10 mM ([4]; pH 7.4) [×10⁻⁶ cm/s]	IC50 [5] [nM]	IC50 [7] [nM]	solubility [8] [mM]	IC50 [9] [nM]	IC50 [10] [nM]	logD [11]	Structure (SMILES)	Body Weight After-Dose [1] [g]	Inhibitory Rate [1] [%]	Weight of Tumor [1]	Body Weight Pre-Dose [1] [g]	Body Weight Pre-Dose ([6]; 20 mg/kg) [g]	Body Weight After-Dose ([6]; 20 mg/kg) [g]	Inhibitory Rate ([6]; 20 mg/kg) [%]	Weight of Tumor ([6]; 20 mg/kg)	further results
420 ± 50	3790 ± 430	51.3 ± 4.8	63.1 ± 5.6	74.4 ± 6.8	330 ± 70	280 ± 30	3.02 (≈ 1740 µg/mL)	950 ± 210	310 ± 20	1.3	CC(C)=CCC12OC(C)(C)C3CC(C=C4C(=O)c5c(OCc6cn(CCN7CCOCC7)nn6)cccc5OC431)C2=O (centres unmarked) [Compound 8g]	27.73 ± 2.78	66.43	0.47 ± 0.12 ^a g	20.67 ± 1.20	20.67 ± 1.30	27.73 ± 2.78	71.32	0.40 ± 0.14 ^b g	IC50 ([2]; range over both resistant A549 lines and both compounds, read-out: IC50 values, taxol-resistant and cisplatin-resistant A549 cell lines): 330 to 550 nM; Pe range ([4]; range under different pH from 5.0 to 7.4): 51.3–74.4 × 10^–6 cm/s; Body Weight Pre-Dose ([6]; 5 mg/kg): 20.80 ± 1.53 g; Body Weight After-Dose ([6]; 5 mg/kg): 28.53 ± 2.81 g; Inhibitory Rate ([6]; 5 mg/kg): 30.88%; Weight of Tumor ([6]; 5 mg/kg): 0.94 ± 0.24 ^a g; Body Weight Pre-Dose ([6]; 10 mg/kg): 21.40 ± 1.81 g; Body Weight After-Dose ([6]; 10 mg/kg): 28.08 ± 2.66 g; Inhibitory Rate ([6]; 10 mg/kg): 52.21%; Weight of Tumor [6]: 0.65 ± 0.17 ^b g; fold higher activity than DDO-6101 in A549 cells ([10]; from IC50 values): approximately eight-fold
820 ± 80	2910 ± 30	9.7 ± 0.5	43.2 ± 0.7	64.9 ± 5.4	1290 ± 110	1090 ± 210	4.02 (≈ 2420 µg/mL)	5860 ± 210	930 ± 80	0.7	CC(C)=CCC12OC(C)(C)C3CC(C=C4C(=O)c5c(OCc6cn(CCCN7CCN(C)CC7)nn6)cccc5OC431)C2=O (centres unmarked) [Compound 8j]	–	–	–	–	–	–	–	–	melting point: 126 to 129 °C

Structure (SMILES)	IC50 [2, 12] [nM]	IC50 [3] [nM]	Papp at 4 h, 10 mM ([4]; pH 5) [×10⁻⁶ cm/s]	Papp at 4 h, 10 mM ([4]; pH 6.2) [×10⁻⁶ cm/s]	Papp at 4 h, 10 mM ([4]; pH 7.4) [×10⁻⁶ cm/s]	IC50 [5] [nM]	IC50 [7] [nM]	solubility [8] [mM]	IC50 [9] [nM]	IC50 [10] [nM]	logD [11]	Body Weight After-Dose [1] [g]	Inhibitory Rate [1] [%]	Weight of Tumor [1]	Body Weight Pre-Dose [1] [g]	Body Weight Pre-Dose ([6]; 20 mg/kg) [g]	Body Weight After-Dose ([6]; 20 mg/kg) [g]	Inhibitory Rate ([6]; 20 mg/kg) [%]	Weight of Tumor ([6]; 20 mg/kg)	further results
CC(C)=CCC12OC(C)(C)C3CC(C=C4C(=O)c5c(O)cccc5OC431)C2=O (centres unmarked) [DDO-6101, reference compound]	460 ± 30	2040 ± 80	23.6 ± 5.5	25.8 ± 1.1	18 ± 3.9	–	710 ± 100	< 0.005	5350 ± 80	–	2.9	26.69 ± 1.90	21.43	1.10 ± 0.25 ^b g	21.13 ± 1.02	21.13 ± 1.22	27.69 ± 1.90	34.56	0.89 ± 0.18 ^b g	–
